Laboratory results published in patent US7629141B2, “Essential and important genes of Pseudomonas aeruginosa and the use thereof to design or identify antibacterial agents” (priority 2001, dated 2009).

How the values were obtained:
LpxC from P. aeruginosa = LpxC from P. aeruginosa (Pseudomonas aeruginosa, UniProt P47205); details: cited from earlier work
E. coli LpxC enzyme = E. coli LpxC enzyme (Escherichia coli, UniProt P0A725); details: cited from earlier work
[1] = tested on: EnvA1 mutant protein (LpxC, His 19 replaced by Serine); details: His 19 replaced by a Serine; cited from earlier work
E. coli DH5α = assay: Growth curves with inhibitor, E. coli; type: cell-based
Procedure: (§3) Growth curves. Bacterial cultures were prepared by diluting stationary phase overnight cultures to an OD600 of 0.1 in 5 ml of LB. The inhibitor, L-161,240, was resuspended in DMSO to a final concentration of 10 mg/ml and added to the bacterial cultures to a final concentration of 50 μg/ml or 10 μg/ml. In the samples without inhibitor, DMSO was added to keep the final concentration of DMSO equivalent between samples. The cultures were incubated with shaking and 0.8 ml was taken for OD600 readings over the course of the experiment.

P. aeruginosa PA01 [2] = assay: Growth curves with inhibitor, P. aeruginosa wild type; type: cell-based
Procedure: as §3

[3] = tested on: P. aeruginosa PAO 200 (MexAB-OprM efflux mutant); assay: Growth curves with inhibitor, efflux pump mutant; type: cell-based; details: FIG. 4
From the text: L-161, 240 is a substrate for the major drug efflux pump of P. aeruginosa. […] However the only one that is constitutively expressed to a high degree in the wild type strains is MexAB-OprM (Kohler, T., M. Michea-Hamzehpour, and U. Henze. 1997. Characterization of MexE-MexF-OprN, a positively regulated multidrug efflux system of Pseudomonas aeruginosa. Mol. Microbiol. 23: 345-354). Therefore, mutants of this efflux system can be used to evaluate the consequences of diminished efflux pump activity. These mutants would be expected to be highly sensitive to a number of antibiotics.

[4] = tested on: E. coli JBK-1 carrying lpxC from E. coli; assay: Growth at 42° C. of E. coli JBK-1 carrying the lpxC copy from E. coli; type: cell-based; details: data not shown
Procedure: (§1) Growth curves. Bacterial cultures were prepared by diluting stationary phase overnight cultures to an OD600 of 0.1 in 5 ml of LB. […] The cultures were incubated with shaking and 0.8 ml was taken for OD600 readings over the course of the experiment. DH5α, PA01, and PA0200 (Schweizer, H. P. 1998. Intrinsic resistance to inhibitors of fatty acid biosynthesis in Pseudomonas aeruginosa is due to efflux: application of a novel technique for generation of unmarked chromosomal mutations for the study of efflux systems. Antimicrob. Agents Chemother. 42: 394-398) were all grown at 37° C. In the cases where temperature sensitive JBK strains were being assayed, the cultures were grown at 42° C. for both the overnight and the time course cultures.
(§2) The E. coli strain JBK-1/pKD6 contains the chromosomal lpxC gene disrupted with a kan element and a wild type copy of E. coli lpxC on the temperature-sensitive replicon pKD6. The strain was constructed as described by Sorensen et al., 1996. Since lpxC is essential for growth, this strain is not viable at 42° C. because the functional copy is on the temperature sensitive replicon.

[5] = tested on: E. coli JBK-1 carrying lpxC from P. aeruginosa
Procedure: as §1, §2

[6] = tested on: 'promoter swapped' P. aeruginosa lpxC mutants; assay: MIC determinations for 'promoter swapped' mutants; type: cell-based
Procedure: MIC determinations for ‘promoter swapped’ mutants. Single colonies of DH5α, PA01 and each promoter swap strain were picked and grown in LB at 37° C. with shaking for approximately 4 hours. Assuming that an OD600 reading of 1.0 is equivalent to 10^9 cells/ml, dilutions were made of all cultures to 5×10^5 cells/ml. 200 μl of each diluted culture was added to each well where a two-fold serial dilution of inhibitor had been placed. The 96-well plates were incubated at 37° C. overnight and their OD600 determined using the Spectramax Plus (Molecular Devices) plate reader.
To confirm the effect of the arabinose-sensitive promoter in regulating the lpxC expression in the swapped mutants, MIC determinations were performed as above, except that arabinose was added to induce expression of the chromosomal locus and override the effects of the plasmid borne lpxC. In this case the stationary-phase overnight bacterial culture was diluted to 5×10^5 cells/ml in LB containing Arabinose to a final concentration of 0.2% (a 20% stock made up in water).
Using the ‘promoter swap’ technique as described in the methods, it was possible to replace expression from the wild type chromosomal copy of P. aeruginosa lpxC, with expression solely from a plasmid borne copy. […]

E. coli [7] = details: cited from earlier work
P. aeruginosa PA01 [8] = tested on: P. aeruginosa PA01
Procedure: Polymixin B nonapeptide (Sigma) was prepared as a suspension in DMSO at 3 mg/ml final concentration. Erythromycin and Tetracycline were resuspended in DMSO to a final concentration of 250 mg/ml and 125 mg/ml, respectively. L-161,240 was prepared as above in DMSO to a final concentration of 10 mg/ml. These DMSO antibiotic solutions were individually added to LB to the appropriate final concentration and mixed. Polymixin B nonapeptide was then added to the appropriate samples and mixed. DMSO was added to each sample to keep the final concentration of DMSO equivalent between samples. A stationary phase overnight culture of PA01 was added to each sample to bring the final concentration to 0.1 OD600. Samples were removed for OD600 determinations every 1-2 hours for 6.5 hours and the data from these time points were plotted.
In order to determine the effect of outer membrane exclusion of L-161,240, we exposed P. aeruginosa to PMBN in combination with L-161,240, and with other lipophilic antibiotics as positive controls.

E. coli [9] = details: lethal intraperitoneal dose of E. coli; cited from earlier work
P. aeruginosa = details: cited from earlier work

Sequence of LpxC from P. aeruginosa (P47205 whole entry): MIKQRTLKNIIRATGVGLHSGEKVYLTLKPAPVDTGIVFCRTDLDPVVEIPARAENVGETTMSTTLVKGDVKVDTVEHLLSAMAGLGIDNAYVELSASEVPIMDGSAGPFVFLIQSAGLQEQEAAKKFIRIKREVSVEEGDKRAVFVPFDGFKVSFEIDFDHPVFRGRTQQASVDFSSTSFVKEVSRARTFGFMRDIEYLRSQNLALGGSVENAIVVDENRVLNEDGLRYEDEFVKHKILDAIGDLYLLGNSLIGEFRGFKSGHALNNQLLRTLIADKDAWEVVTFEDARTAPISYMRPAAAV
Sequence of E. coli LpxC enzyme (P0A725 whole entry): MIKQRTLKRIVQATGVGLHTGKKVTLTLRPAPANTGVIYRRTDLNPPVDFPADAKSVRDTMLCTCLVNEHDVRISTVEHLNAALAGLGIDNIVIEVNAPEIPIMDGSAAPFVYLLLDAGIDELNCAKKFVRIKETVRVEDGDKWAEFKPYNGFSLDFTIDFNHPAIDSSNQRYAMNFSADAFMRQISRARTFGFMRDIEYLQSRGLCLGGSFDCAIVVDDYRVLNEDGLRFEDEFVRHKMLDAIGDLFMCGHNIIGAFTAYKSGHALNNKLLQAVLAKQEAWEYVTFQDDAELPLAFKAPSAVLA

## O=C(O)CN(CCN(CC(=O)O)CC(=O)O)CC(=O)O [EDTA]
LpxC from P. aeruginosa
  EDTA concentration significantly inhibiting P. aeruginosa LpxC enzyme: ≤ 2 µM
E. coli LpxC enzyme
  sensitivity of E. coli LpxC enzyme to EDTA: not sensitive
[1]
  sensitivity of envA1 mutant LpxC to EDTA: sensitive

## CCCc1cc(C2=N[C@@H](C(=O)NO)CO2)cc(OC)c1OC [L-161,240]
E. coli DH5α
  prevention of growth of E. coli: effective in preventing growth
P. aeruginosa PA01 [2]
  prevention of growth of P. aeruginosa: completely ineffective
[3]
  sensitivity of efflux mutant PAO 200 compared with wild type: not more sensitive
[4]
  sensitivity of JBK-1 carrying E. coli lpxC to killing: still sensitive to killing by a slightly higher concentration
[5]; 42° C., data not shown
  inhibitor concentration to which JBK-1 carrying P. aeruginosa lpxC is resistant: > 50 µg/mL
[5]; JBK-1 carrying P. aeruginosa lpxC
  resistance level relative to the MIC of the wild type organisms: about 50 times
[6]; LB containing 0.2% arabinose, vector with E. coli or P. aeruginosa lpxC
  sensitivity of all promoter swap transformants with chromosomal lpxC induced: resistant to killing
[6]; promoter swap, native lpxC shut off, plasmid-borne E. coli lpxC, no arabinose
  sensitivity of P. aeruginosa expressing only E. coli LpxC versus wild type / P. aeruginosa enzyme: much more sensitive
E. coli [7]
  minimal inhibitory concentration against E. coli: about 1 microgram per milliliter
P. aeruginosa PA01 [8]
  sensitivity of P. aeruginosa in combination with PMBN: remained unchanged
E. coli [9]
  outcome in mice infected with lethal dose of E. coli: cured
LpxC from P. aeruginosa
  inhibition of LpxC from P. aeruginosa: only at very high concentrations, and even then it did so poorly
P. aeruginosa
  effect on bacterial growth of P. aeruginosa: no effect on bacterial growth

## CN(C)[C@@H]1C(O)=C(C(N)=O)C(=O)[C@@]2(O)C(O)=C3C(=O)c4c(O)cccc4[C@@](C)(O)[C@H]3C[C@@H]12 [tetracycline]
P. aeruginosa PA01 [8]
  lowering of MIC for P. aeruginosa by PMBN: more than 16 fold
